Data: US20080175872A1, “Controlled Release Dosage Form Containing Lercanidipine and a Performance-enhancing Acid” (OSMOTICA CORP., priority 2006, published 2008)
“And” between values parts separate entries of the source, which are not always exact repeats. Identical values can stand only once.

Assays:
[1] = oral administration of an immediate release form; cited from earlier work
[2] = Stability of lercanidipine HCl polymorph II alone or 1/1 with organic acid, impurities by HPLC; assay type: physicochemical
Description: Analytical testing of the different samples was done by HPLC, column RP18, 300×3.9 mm ID, particle size 4 μm, in acetonitrile-0.15 M sodium perchlorate buffer, pH 3.0, at a flow rate of 1.3 ml/min, at 30° C., detector UV 240 nm. In all cases impurities were reported as % of the area of the impurity peak referred to the area of the main peak (a/a). The lercanidipine is the lercanidipine HCl polymorph II. […] The lercanidipine is the lercanidipine HCl polymorph II.

[3] = cited from earlier work
[4] = 50° C., 1.5 month, closed vials

Impurity 3 ([2]; 5° C. (reference condition)): 0.18 % a/a and 0.27 % a/a
Impurity B ([2]; 5° C. (reference condition)): 0.02 % a/a and 0.01 % a/a
Maximum unknown impurities ([2]; 5° C. (reference condition)): 0.04 % a/a
Impurity 3 ([2]; 50° C. + 75% RH): 0.28 % a/a and 0.16 % a/a
Impurity B ([2]; 50° C. + 75% RH): 0.01 % a/a
Maximum unknown impurities ([2]; 50° C. + 75% RH): 0.05 % a/a and 0.04 % a/a
Total impurities ([2]; 50° C. + 75% RH): 0.43 % a/a and 0.34 % a/a
Impurity 3 [2, 4]: 0.22 % a/a and 0.30 % a/a
Impurity B [2, 4]: 0.01 % a/a
Maximum unknown impurities [2, 4]: 0.03 % a/a and 0.04 % a/a
Total impurities [2, 4]: 0.31 % a/a and 0.47 % a/a
Structure (SMILES): COC(=O)C1=C(C)NC(C)=C(C(=O)OC(C)(C)CN(C)CCC(c2ccccc2)c2ccccc2)C1c1cccc([N+](=O)[O-])c1 (centres unmarked) [Lercanidipine, methyl 1,1,N-trimethyl-N-(3,3-diphenylpropyl)-2-aminoethyl 1,4-dihydro-2,6-dimethyl-4-(3-nitrophenyl)pyridine-3,5-dicarboxylate]
peak plasma level (Tmax) [1]: 1 to 3 h
permeability classification as defined by the FDA [3]: low permeable drug
solubility in gastrointestinal pH range ([3]; pH range of 1 to 8): essentially insoluble
